Reference: BindingDB's records for doi:10.1021/jm00126a016 (G. D. Searle, 1989)
pIC50: −log10 of the molar value.

Target: Glutamate receptor ionotropic NMDA, PCP site (Rattus norvegicus)
Experiment: Inhibition of [3H]1-[1-(2-thienyl) piperidine ([3H]TCP) binding to phencyclidine receptor

Row | Structure (SMILES) | pIC50
1 | CN1CCc2ccccc2C1 | < 4.52
2 | CC1Cc2ccccc2C(C)N1 (stereo not drawn) | < 4.52
3 | c1ccc2c(c1)CCNC2c1ccc2ccccc2c1 (stereo not drawn) | < 4.52
4 | C=CCN1C(C)Cc2ccccc2C1C (stereo not drawn) | 5.27
5 | c1ccc(C2NCc3ccccc32)cc1 (stereo not drawn) | < 4.52
6 | CC(C)C1NCCc2ccccc21 (stereo not drawn) | 4.96
7 | Clc1ccc(C2NCCc3ccccc32)cc1 (stereo not drawn) | 5.28
8 | Fc1ccc(C2NCCc3ccccc32)cc1 (stereo not drawn) | 5.31
